{"source": "patent US11034725B2", "about": "“Compositions and methods for treating cardiovascular disease” (Genentech, Inc., priority 2016, dated 2021)", "key": {"PCSK9Δhelix": {"molecular_target": "T1, PCSK9Δhelix (Homo sapiens, UniProt Q8NBP7)", "T1 construct": "Human PCSK9 construct M1-Q692 with an engineered TEV site (residue deletion Y166, R167); made in house; host or cells: CHO", "T1 sequence (Q8NBP7 with tags, fused parts or gaps limits assumed)": "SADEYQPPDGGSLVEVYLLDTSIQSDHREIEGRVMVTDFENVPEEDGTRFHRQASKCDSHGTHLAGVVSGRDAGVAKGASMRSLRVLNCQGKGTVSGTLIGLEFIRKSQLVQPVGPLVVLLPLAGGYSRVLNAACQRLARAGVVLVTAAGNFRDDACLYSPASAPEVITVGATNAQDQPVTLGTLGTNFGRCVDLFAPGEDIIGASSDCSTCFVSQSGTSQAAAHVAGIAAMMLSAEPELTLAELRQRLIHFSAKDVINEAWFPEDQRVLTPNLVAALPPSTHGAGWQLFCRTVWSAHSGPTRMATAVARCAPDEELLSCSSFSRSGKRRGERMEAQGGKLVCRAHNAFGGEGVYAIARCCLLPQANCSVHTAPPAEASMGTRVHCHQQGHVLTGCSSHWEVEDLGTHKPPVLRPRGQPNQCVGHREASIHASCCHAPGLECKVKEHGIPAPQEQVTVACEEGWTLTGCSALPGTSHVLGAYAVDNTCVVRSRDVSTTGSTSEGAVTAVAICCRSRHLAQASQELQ", "T1 sequence (Q8NBP7 31-152 partner limits assumed)": "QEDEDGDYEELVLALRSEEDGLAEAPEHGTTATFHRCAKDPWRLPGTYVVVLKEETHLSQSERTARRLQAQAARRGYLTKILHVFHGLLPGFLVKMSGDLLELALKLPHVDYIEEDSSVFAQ", "assay": "PCSK9Δhelix/Ab20 TR-FRET binding assay", "settings": "TR-FRET, read-out: PCSK9Δhelix/Ab20 IC50"}, "His-EGF(A)-Fc": {"system": "His-EGF(A)-Fc", "assay": "His-EGF(A)-Fc TR-FRET counterscreen", "settings": "TR-FRET counterscreen; Table 8D; * = some inhibition at highest concentrations, not sufficient to fit an IC50"}, "PCSK9": {"molecular_target": "PCSK9 (Homo sapiens, UniProt Q8NBP7)", "sequence (Q8NBP7 153-692)": "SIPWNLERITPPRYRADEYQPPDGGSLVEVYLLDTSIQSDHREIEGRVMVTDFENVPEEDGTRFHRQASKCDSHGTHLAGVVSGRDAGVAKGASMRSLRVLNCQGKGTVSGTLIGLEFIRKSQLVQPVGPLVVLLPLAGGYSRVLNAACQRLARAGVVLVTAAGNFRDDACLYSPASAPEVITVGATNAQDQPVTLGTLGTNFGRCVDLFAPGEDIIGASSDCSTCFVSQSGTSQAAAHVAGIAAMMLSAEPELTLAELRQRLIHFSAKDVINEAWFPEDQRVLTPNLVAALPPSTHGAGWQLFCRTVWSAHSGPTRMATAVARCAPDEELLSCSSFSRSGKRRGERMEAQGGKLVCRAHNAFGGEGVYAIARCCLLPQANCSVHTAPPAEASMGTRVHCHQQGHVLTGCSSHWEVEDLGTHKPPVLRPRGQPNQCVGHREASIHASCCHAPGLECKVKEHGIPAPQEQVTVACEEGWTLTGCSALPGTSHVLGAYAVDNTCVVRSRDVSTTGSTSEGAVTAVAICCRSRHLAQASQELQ", "sequence (Q8NBP7 31-152 partner limits assumed)": "as the sequence (Q8NBP7 31-152 partner limits assumed) above", "assay": "PCSK9/EGF(A) TR-FRET binding assay", "settings": "TR-FRET; Table 8D, disulfide-cyclized extension peptides; read-out: PCSK9/EGF(A) IC50"}, "[1]": {"settings": "Table 8D, disulfide-cyclized extension peptides"}}, "note": "Like-named read-outs stand apart in the source and are kept apart here. Bridge positions count the residues as written; N and C are the ends. Square brackets hold non-standard residues; d marks the D form. Peptide text beside a SMILES is read from it. Cit = NC(=O)NCCC[C@H](N)C(=O)O"}
{"smiles": "CC[C@H](C)[C@@H]1NC(=O)[C@H](CCCNC(=N)N)NC(=O)[C@H](CCC(N)=O)NC(=O)[C@H](CC(C)C)NC(=O)[C@H](CC(N)=O)NC(=O)[C@H](Cc2c[nH]c3ccccc23)NC(=O)[C@@H]2CCCN2C(=O)[C@H](CC(C)C)NC(=O)[C@H](CCCNC(=N)N)NC(=O)[C@@H](NC(=O)CNC(=O)[C@H](CO)NC(C)=O)CSSC[C@@H](C(N)=O)NC(=O)[C@@H]2CCCN2C(=O)[C@H](CC(C)C)NC(=O)CNC1=O", "note": "[Compound 30] (Ac-SGCRLPWNLQRIGLPC-NH2; disulfide 3-16)", "values": [{"measurement": "IC50", "setting": "PCSK9Δhelix; [1]", "result": 0.95, "unit": "µM"}, {"measurement": "IC50", "setting": "His-EGF(A)-Fc", "result": "> 50", "unit": "µM"}, {"measurement": "IC50", "setting": "PCSK9", "result": "> 50", "unit": "µM"}]}
{"smiles": "CC[C@H](C)[C@@H]1NC(=O)[C@H](CCCNC(N)=O)NC(=O)[C@H](CCC(N)=O)NC(=O)[C@H](CC(C)C)NC(=O)[C@H](CC(N)=O)NC(=O)[C@H](Cc2c[nH]c3ccccc23)NC(=O)[C@@H]2CCCN2C(=O)[C@H]([C@@H](C)CC)NC(=O)[C@H](Cc2ccccc2)NC(=O)[C@@H](NC(=O)CNC(=O)[C@H](CO)NC(C)=O)CSSC[C@@H](C(N)=O)NC(=O)[C@@H]2CCCN2C(=O)[C@H](CC(C)C)NC(=O)CNC1=O", "note": "[Compound 36] (Ac-SGCFIPWNLQ[Cit]IGLPC-NH2; disulfide 3-16)", "values": [{"measurement": "IC50", "setting": "PCSK9Δhelix; [1]", "result": "> 50", "unit": "µM"}, {"measurement": "IC50", "setting": "His-EGF(A)-Fc", "result": "> 50", "unit": "µM"}, {"measurement": "IC50", "setting": "PCSK9", "result": "> 50", "unit": "µM"}]}
{"smiles": "CC[C@H](C)[C@@H]1NC(=O)[C@H](CCCNC(=N)N)NC(=O)[C@H](CCCCN)NC(=O)[C@H](CC(C)C)NC(=O)[C@H](CC(N)=O)NC(=O)[C@H](Cc2c[nH]c3ccccc23)NC(=O)[C@@H](NC(C)=O)CSSC[C@@H](C(=O)N[C@@H](Cc2c[nH]c3ccccc23)C(N)=O)NC(=O)CNC(=O)[C@H](CCC(N)=O)NC(=O)[C@H](CO)NC(=O)CNC1=O", "note": "[Compound 39] (Ac-CWNLKRIGSQGCW-NH2; disulfide 1-12)", "values": [{"measurement": "IC50", "setting": "PCSK9Δhelix; [1]", "result": 37.5, "unit": "µM"}, {"measurement": "IC50", "setting": "His-EGF(A)-Fc", "result": "> 50", "unit": "µM"}, {"measurement": "IC50", "setting": "PCSK9", "result": "> 50", "unit": "µM"}]}
{"smiles": "CC[C@H](C)[C@@H]1NC(=O)[C@H](CCCNC(=N)N)NC(=O)[C@H](CCCCN)NC(=O)[C@H](CC(C)C)NC(=O)[C@H](CC(N)=O)NC(=O)[C@H](Cc2c[nH]c3ccccc23)NC(=O)[C@H](CC(C)C)NC(=O)[C@@H](NC(=O)[C@H](CC(=O)O)NC(C)=O)CSSC[C@@H](C(=O)N[C@@H](CCC(=O)O)C(=O)N[C@@H](Cc2ccc(O)cc2)C(N)=O)NC(=O)[C@H](CCC(N)=O)NC(=O)[C@H](CO)NC(=O)CNC1=O", "note": "[Compound 64] (Ac-DCLWNLKRIGSQCEY-NH2; disulfide 2-13)", "values": [{"measurement": "IC50", "setting": "PCSK9Δhelix; [1]", "result": "> 50", "unit": "µM"}, {"measurement": "IC50", "setting": "His-EGF(A)-Fc", "result": "> 50", "unit": "µM"}, {"measurement": "IC50", "setting": "PCSK9", "result": "> 50", "unit": "µM"}]}
{"smiles": "CC[C@H](C)[C@@H]1NC(=O)[C@H](CCCNC(=N)N)NC(=O)[C@H](CCCCN)NC(=O)[C@H](CC(C)C)NC(=O)[C@H](CC(N)=O)NC(=O)[C@H](Cc2c[nH]c3ccccc23)NC(=O)[C@H](CC(C)C)NC(=O)[C@@H](NC(=O)[C@H](Cc2c[nH]c3ccccc23)NC(C)=O)CSSC[C@@H](C(=O)N[C@@H](CCC(=O)O)C(=O)N[C@@H](Cc2ccc(O)cc2)C(N)=O)NC(=O)[C@H](CCC(N)=O)NC(=O)[C@H](CO)NC(=O)CNC1=O", "note": "[Compound 65] (Ac-WCLWNLKRIGSQCEY-NH2; disulfide 2-13)", "values": [{"measurement": "IC50", "setting": "PCSK9Δhelix; [1]", "result": 7.1, "unit": "µM"}, {"measurement": "IC50", "setting": "His-EGF(A)-Fc", "result": "> 50", "unit": "µM"}, {"measurement": "IC50", "setting": "PCSK9", "result": "> 50", "unit": "µM"}]}
{"smiles": "CC[C@H](C)[C@@H]1NC(=O)[C@H](CCCNC(=N)N)NC(=O)[C@H](CCCCN)NC(=O)[C@H](CC(C)C)NC(=O)[C@H](CC(N)=O)NC(=O)[C@H](Cc2c[nH]c3ccccc23)NC(=O)[C@@H]2CCCN2C(=O)[C@H](CC(C)C)NC(=O)[C@H](CCCNC(=N)N)NC(=O)[C@@H](NC(C)=O)CSSC[C@@H](C(N)=O)NC(=O)[C@@H]2CCCN2C(=O)[C@H](CC(C)C)NC(=O)CNC1=O", "note": "[Compound 67] (Ac-CRLPWNLKRIGLPC-NH2; disulfide 1-14)", "values": [{"measurement": "IC50", "setting": "PCSK9Δhelix; Example 7", "result": 0.7, "unit": "µM"}, {"measurement": "IC50", "setting": "PCSK9Δhelix; [1]", "result": 0.699, "unit": "µM"}, {"measurement": "IC50", "setting": "His-EGF(A)-Fc", "result": "> 50", "unit": "µM"}, {"measurement": "IC50", "setting": "PCSK9", "result": "> 50", "unit": "µM"}]}
{"smiles": "CC[C@H](C)[C@@H]1NC(=O)[C@H](CCCNC(=N)N)NC(=O)[C@H](CCC(N)=O)NC(=O)[C@H](CC(C)C)NC(=O)[C@H](CC(N)=O)NC(=O)[C@H](Cc2c[nH]c3ccccc23)NC(=O)[C@@H]2CCCN2C(=O)[C@H](CC(C)C)NC(=O)[C@H](CCCNC(=N)N)NC(=O)[C@@H](NC(C)=O)CSSC[C@@H](C(N)=O)NC(=O)[C@H](C)NC(=O)[C@H](CC(C)C)NC(=O)CNC1=O", "note": "[Compound 68] (Ac-CRLPWNLQRIGLAC-NH2; disulfide 1-14)", "values": [{"measurement": "IC50", "setting": "PCSK9Δhelix; [1]", "result": 0.939, "unit": "µM"}, {"measurement": "IC50", "setting": "His-EGF(A)-Fc", "result": "> 50", "unit": "µM"}, {"measurement": "IC50", "setting": "PCSK9", "result": "> 50", "unit": "µM"}]}
{"smiles": "CC[C@H](C)[C@@H]1NC(=O)[C@H](CCCNC(=N)N)NC(=O)[C@H](CCC(N)=O)NC(=O)[C@H](CC(C)C)NC(=O)[C@H](CC(N)=O)NC(=O)[C@H](Cc2c[nH]c3ccccc23)NC(=O)[C@@H]2CCCN2C(=O)[C@H](CC(C)C)NC(=O)[C@H](CCCNC(=N)N)NC(=O)[C@@H](NC(C)=O)CSSC[C@@H](C(N)=O)NC(=O)[C@@H]2CCCN2C(=O)[C@H](C)NC(=O)CNC1=O", "note": "[Compound 69] (Ac-CRLPWNLQRIGAPC-NH2; disulfide 1-14)", "values": [{"measurement": "IC50", "setting": "PCSK9Δhelix; [1]", "result": 6.64, "unit": "µM"}, {"measurement": "IC50", "setting": "His-EGF(A)-Fc", "result": "> 50", "unit": "µM"}, {"measurement": "IC50", "setting": "PCSK9", "result": "> 50", "unit": "µM"}]}
{"smiles": "CC[C@H](C)[C@@H]1NC(=O)[C@H](CCCNC(=N)N)NC(=O)[C@H](CCC(N)=O)NC(=O)[C@H](CC(C)C)NC(=O)[C@H](CC(N)=O)NC(=O)[C@H](Cc2c[nH]c3ccccc23)NC(=O)[C@@H]2CCCN2C(=O)[C@H](CC(C)C)NC(=O)[C@H](CCCNC(=N)N)NC(=O)[C@@H](NC(C)=O)CSSC[C@@H](C(N)=O)NC(=O)[C@@H]2CCCN2C(=O)[C@H](CC(C)C)NC(=O)[C@H](C)NC1=O", "note": "[Compound 70] (Ac-CRLPWNLQRIALPC-NH2; disulfide 1-14)", "values": [{"measurement": "IC50", "setting": "PCSK9Δhelix; [1]", "result": 7.26, "unit": "µM"}, {"measurement": "IC50", "setting": "His-EGF(A)-Fc", "result": "> 50", "unit": "µM"}, {"measurement": "IC50", "setting": "PCSK9", "result": "> 50", "unit": "µM"}]}
{"smiles": "CC(=O)N[C@H]1CSSC[C@@H](C(N)=O)NC(=O)[C@@H]2CCCN2C(=O)[C@H](CC(C)C)NC(=O)CNC(=O)[C@H](C)NC(=O)[C@H](CCCNC(=N)N)NC(=O)[C@H](CCC(N)=O)NC(=O)[C@H](CC(C)C)NC(=O)[C@H](CC(N)=O)NC(=O)[C@H](Cc2c[nH]c3ccccc23)NC(=O)[C@@H]2CCCN2C(=O)[C@H](CC(C)C)NC(=O)[C@H](CCCNC(=N)N)NC1=O", "note": "[Compound 71] (Ac-CRLPWNLQRAGLPC-NH2; disulfide 1-14)", "values": [{"measurement": "IC50", "setting": "PCSK9Δhelix; [1]", "result": 49.5, "unit": "µM"}, {"measurement": "IC50", "setting": "His-EGF(A)-Fc", "result": "> 50", "unit": "µM"}, {"measurement": "IC50", "setting": "PCSK9", "result": "> 50", "unit": "µM"}]}
{"smiles": "CC[C@H](C)[C@@H]1NC(=O)[C@H](C)NC(=O)[C@H](CCC(N)=O)NC(=O)[C@H](CC(C)C)NC(=O)[C@H](CC(N)=O)NC(=O)[C@H](Cc2c[nH]c3ccccc23)NC(=O)[C@@H]2CCCN2C(=O)[C@H](CC(C)C)NC(=O)[C@H](CCCNC(=N)N)NC(=O)[C@@H](NC(C)=O)CSSC[C@@H](C(N)=O)NC(=O)[C@@H]2CCCN2C(=O)[C@H](CC(C)C)NC(=O)CNC1=O", "note": "[Compound 72] (Ac-CRLPWNLQAIGLPC-NH2; disulfide 1-14)", "values": [{"measurement": "IC50", "setting": "PCSK9Δhelix; [1]", "result": 39.6, "unit": "µM"}, {"measurement": "IC50", "setting": "His-EGF(A)-Fc", "result": "> 50", "unit": "µM"}, {"measurement": "IC50", "setting": "PCSK9", "result": "> 50", "unit": "µM"}]}
{"smiles": "CC[C@H](C)[C@@H]1NC(=O)[C@H](CCCNC(=N)N)NC(=O)[C@H](CCC(N)=O)NC(=O)[C@H](C)NC(=O)[C@H](CC(N)=O)NC(=O)[C@H](Cc2c[nH]c3ccccc23)NC(=O)[C@@H]2CCCN2C(=O)[C@H](CC(C)C)NC(=O)[C@H](CCCNC(=N)N)NC(=O)[C@@H](NC(C)=O)CSSC[C@@H](C(N)=O)NC(=O)[C@@H]2CCCN2C(=O)[C@H](CC(C)C)NC(=O)CNC1=O", "note": "[Compound 74] (Ac-CRLPWNAQRIGLPC-NH2; disulfide 1-14)", "values": [{"measurement": "IC50", "setting": "PCSK9Δhelix; [1]", "result": 49.5, "unit": "µM"}, {"measurement": "IC50", "setting": "His-EGF(A)-Fc", "result": "> 50", "unit": "µM"}, {"measurement": "IC50", "setting": "PCSK9", "result": "> 50", "unit": "µM"}]}
